Source: patent US20160263072A1, “MONOACYLGLYCEROLS AND FAT-SOLUBLE NUTRIENTS FOR USE IN THE TREATMENT OF MALABSORPTION HAVING A NON-MECHANICAL BASIS” (NESTEC S.A., priority 2013, published 2016)

What was measured:
[1] = Lipid maldigestion or malabsorption rat model (XENICAL-induced): EPA level in red blood cell and tissue lipids; type: in vivo; settings: rats
Description: The concept was tested in a lipid maldigestion or malabsorption rat model. The maldigestion or malabsorption condition was obtained using XENICAL® (ORLISTAT), a pancreatic and gastric lipases inhibitor (tetrahydrolipstatin; see FIG. 7). Rats were fed during 21 days with long-chain polyunsaturated fatty acid (LC-PUFA) supplements containing mainly eicosapentaenoic (EPA) acid. Fish oil was used as a source of triacylglycerols, and different EPA glycerides were evaluated. XENICAL® (ORLISTAT) was given at a level sufficient to decrease lipid absorption by 40%. A group receiving fish oil without XENICAL® (ORLISTAT) was used as a positive control. At different time intervals (D3, D7, […]), the fatty acid profiles of red blood cell and plasma lipids were determined. At the end of the experiment, the fatty acid profiles of different tissues were determined. The main objective was to follow the level of EPA in red blood cell and plasma lipids. The main comparison evaluated was the difference in EPA level between the group receiving EPA-containing sn-1(3) MAG in combination with XENICAL® (ORLISTAT) and the positive control group (fish oil+XENICAL® (ORLISTAT)).

[2] = Clinical study: delivery of EPA by sn-1(3) MAG vs fish oil (TAG) under XENICAL (ORLISTAT)-induced lipid maldigestion; type: in vivo, humans
Description: This clinical study compared the efficacy of sn-1(3) MAG and fish oil (TAG) in delivering EPA in humans under lipid maldigestion conditions induced by XENICAL® (ORLISTAT). The comparison was tested in volunteers having a BMI of 37-40 kg/m^2 and treated with ORLISTAT® to induce lipid maldigestion or not treated with XENICAL® (ORLISTAT). The primary objective was to assess accretion of EPA in erythrocytes over 21 days when consumed as fish oil (TAG) or sn-1(3) MAG. The secondary objectives were to assess accretion of EPA in plasma over 21 days and also to assess the pharmacokinetics of EPA after an acute dose either in the form of sn-1(3) MAG or TAG (AUC in chylomicrons over 10 hours postprandial).

| Compound | EPA incorporation in red blood cells ([1]; day 7, fish oil + XENICAL vs fish oil without XENICAL) | chronic effect: accretion of EPA in erythrocytes after 21 days ([2]; humans, with XENICAL, vs fish oil and XENICAL, p=0.0001) | chronic effect: accretion of EPA in plasma after 21 days ([2]; humans, with XENICAL, vs fish oil and XENICAL, p=0.0003) | carrier for EPA compared with fish oil (TAG) ([2]; obese subjects treated with XENICAL) | incorporation of LC-PUFAs in tissue ([1]; conditions of lipid maldigestion or malabsorption) |
| --- | --- | --- | --- | --- | --- |
| CCCCCCCCCCC[C@@H](C[C@@H]1OC(=O)[C@H]1CCCCCC)OC(=O)[C@H](CC(C)C)NC=O [XENICAL® (ORLISTAT), tetrahydrolipstatin, reference compound] | decreases EPA incorporation in red blood cells | – | – | – | – |
| CC/C=C\C/C=C\C/C=C\C/C=C\C/C=C\CCCC(=O)OC[C@@H](O)CO [sn-1(3) MAG, 1,3 MAG-EPA] | – | statistically significant | statistically significant | better carrier for EPA than fish oil | improved |
